According to patent US7524679B2, “Methods for culturing human lung mast cells and uses thereof” (Philadelphia, Health and Education Corporation, priority 2001, dated 2009):
Ends that are not written are not given here.

Columns and labels:
human lung mast cells [1] = experiment: Histamine release assay in cultured human lung mast cells; type: cell-based; details: agent alone on cultured human lung mast cells
Procedure: Release of histamine in response to various stimuli was also examined.
Mast cells (10-50×10^3/tube) in PAGCM were preincubated at 37° C. then challenged with buffer or anti-FcεRI in doubling dilutions. In experiments examining the effects of beta-agonist and purinergic agonists, agents were added to cells at 37° C. for 15 minutes prior to FcεRI-mediated challenge. Twenty minutes following challenge, cells were rapidly pelleted and supernatants removed for histamine analysis. Histamine release was expressed as the net histamine released divided by the total histamine content ×100%. The total cellular histamine content was determined following cell lysis with 2% perchloric acid. […] Histamine measurements were performed using the automated spectrofluorometric method of Technicon (Tarrytown, N.Y.). […] All assays were run in duplicates.

human lung mast cells [2] = experiment: Proliferation assay using 3H-thymidine uptake; type: cell-based; details: for effect on proliferation when added to medium containing stem cell factor and interleukin-4: added on top of stem cell factor and interleukin-4
Procedure: Uptake of ^3H-thymidine was also monitored as a measure of survival and proliferation of human lung mast cell cultures of the present invention in the presence of different cytokine growth factors. In these experiments, ^3H-thymidine was added to human lung mast cell aliquots from three individuals at 5 through 7 weeks of culture. […] In the absence of stem cell factor, cells died within 3-5 days. Medium with stem cell factor alone produced a 60% increase in uptake. Medium to which stem cell factor and interleukin-4 were added produced a greater than 4-fold increase in proliferation versus stem cell factor alone.
At days 35-49, when cultures contained >95-99% mast cells, 2×10^4 mast cells in 50 μl culture medium were placed in triplicate in 96 well flat-bottomed plates and ^3H-thymidine (0.5 μCi/50 μl/well) added. After four days, cells were harvested on a glass fiber filter, washed ×3, and radioactive uptake was evaluated by a beta counter. Since the cultures contained virtually homogeneous populations, the counts reflected mast cell proliferation and not that of cellular contaminants. The results were expressed as the percent increase in radioactivity over mast cell cultured in medium alone.

[3] = system: human lung mast cell cultures; experiment: Beta-receptor responsiveness: inhibition of histamine release; type: cell-based; details: cultured human lung mast cells, agents added 15 minutes prior to FcεRI-mediated challenge
Procedure: Beta-receptor responsiveness of human lung mast cell cultures of the present invention were also examined using the prototype agonist, isoproterenol, as well as with the long-acting beta agonist, salmeterol.
Mast cells (10-50×10^3/tube) in PAGCM were preincubated at 37° C. then challenged with buffer or anti-FcεRI in doubling dilutions. In experiments examining the effects of beta-agonist and purinergic agonists, agents were added to cells at 37° C. for 15 minutes prior to FcεRI-mediated challenge. Twenty minutes following challenge, cells were rapidly pelleted and supernatants removed for histamine analysis. Histamine release was expressed as the net histamine released divided by the total histamine content ×100%. The total cellular histamine content was determined following cell lysis with 2% perchloric acid. Spontaneous histamine release was always <2% of cellular histamine and generally <1%. Histamine measurements were performed using the automated spectrofluorometric method of Technicon (Tarrytown, N.Y.). Variations between replicates were consistently <5%. All assays were run in duplicates.

[4] = system: cord-blood precursor-derived mast cells; details: cited from earlier work
[5] = system: freshly isolated human lung mast cells; details: cited from earlier work
[6] = system: mast cells from CD34 positive precursor stem cells; details: added to precursor-derived mast cell culture system; cited from earlier work

In the case of “substance P (RPKPQQFFGLM; ends and bridges not checked; UniProt P20366 58-68, looked up)”, the “histamine release, in words” value (human lung mast cells [1]) is reported as “failed to provoke histamine release”.

In the case of “interferon-y: cytokine added to culture medium containing stem cell factor and interleukin-4”, the “effect on proliferation when added to medium containing stem cell factor and interleukin-4” value (human lung mast cells [2]) is reported as “marked reduction in proliferation”.

With “stem cell factor: cytokine growth factor added to the culture medium” the “increase in 3H-thymidine uptake” value (human lung mast cells [2]; medium with stem cell factor alone, over medium alone) was 60%.

In the case of interleukin-9: cytokine growth factor, the “effect on proliferation when added to medium containing stem cell factor and interleukin-4” value (human lung mast cells [2]) is reported as “even greater enhancement in proliferation”.

Work on `OCc1cc(C(O)CNCCCCCCOCCCCc2ccccc2)ccc1O` (stereo not shown) [salmeterol] yielded an IC50 [3] of 0.1 nM.

With `O=c1ccn([C@@H]2O[C@H](COP(=O)(O)OP(=O)(O)OP(=O)(O)O)[C@@H](O)[C@H]2O)c(=O)[nH]1` [UTP, uridine 5′ triphosphate] the “histamine release, in words” value (human lung mast cells [1]) was “neither ATP nor UTP alone triggered appreciable histamine release”.

For `Nc1ncnc2c1ncn2[C@@H]1O[C@H](COP(=O)(O)OP(=O)(O)OP(=O)(O)O)[C@@H](O)[C@H]1O` [ATP], the “histamine release, in words” value (human lung mast cells [1]) was “neither ATP nor UTP alone triggered appreciable histamine release”.

For `CNc1ccc2oc(C[C@H]3O[C@@]4(CC[C@H]3C)O[C@H]([C@H](C)C(=O)c3ccc[nH]3)[C@H](C)C[C@H]4C)nc2c1C(=O)O` [A23187], the “histamine release, in words” value (human lung mast cells [1]) was “in similar fashion to freshly isolated human lung mast cells”.

For `Nc1ncnc2c1ncn2[C@@H]1O[C@H](CO)[C@@H](O)[C@H]1O` [Adenosine, adenosine], the “effect on IgE-mediated histamine release” value [4] is listed as “inhibits IgE-mediated histamine release” and the “effect on anti-IgE-induced histamine release” value [5] is listed as “enhancement of anti-IgE-induced release”.

In the case of `CC(C)NCC(O)c1ccc(O)c(O)c1` (stereo not shown) [isoproterenol], the IC50 [3] is reported as 0.09 nM.

B1: interleukin-4: cytokine growth factor; the cytokine that most defines allergic immunity (protein, UniProt P05112 25-153, looked up)
Interleukin-4: HKCDITLQEIIKTLNSLTEQKTLCTELTVTDIFAASKNTTEKETFCRAATVLRQFYSHHEKDTRCLGATAQQFHRHKQLIRFLKRLDRNLWGLAGLNSCPVKEANQSTLENFLERLKTIMREKYSKCSS
For B1, the “proliferation (3H-thymidine uptake)” value (human lung mast cells [2]; interleukin-4 added in the absence of stem cell factor, 5 through 7 weeks of culture) is listed as “no proliferation in excess of that seen in culture medium alone” and the “programmed cell death (apoptosis)” value [6] is listed as “induces programmed cell death (apoptosis)”.
